Laboratory results taken from patent US20230009608A1, “GRK2 INHIBITORS AND USES THEREOF” (Cygnal Therapeutics, Inc., priority 2020, published 2023).

Experiments:
GRK2 [1] = molecular target: T1, GRK2 (Homo sapiens, UniProt P25098); test: GRK2 Inhibition Assay (TR-FRET, Example 7); format: biochemical
T1 construct: purchased SignalChem A14-10G
T1 sequence (P25098 1-689): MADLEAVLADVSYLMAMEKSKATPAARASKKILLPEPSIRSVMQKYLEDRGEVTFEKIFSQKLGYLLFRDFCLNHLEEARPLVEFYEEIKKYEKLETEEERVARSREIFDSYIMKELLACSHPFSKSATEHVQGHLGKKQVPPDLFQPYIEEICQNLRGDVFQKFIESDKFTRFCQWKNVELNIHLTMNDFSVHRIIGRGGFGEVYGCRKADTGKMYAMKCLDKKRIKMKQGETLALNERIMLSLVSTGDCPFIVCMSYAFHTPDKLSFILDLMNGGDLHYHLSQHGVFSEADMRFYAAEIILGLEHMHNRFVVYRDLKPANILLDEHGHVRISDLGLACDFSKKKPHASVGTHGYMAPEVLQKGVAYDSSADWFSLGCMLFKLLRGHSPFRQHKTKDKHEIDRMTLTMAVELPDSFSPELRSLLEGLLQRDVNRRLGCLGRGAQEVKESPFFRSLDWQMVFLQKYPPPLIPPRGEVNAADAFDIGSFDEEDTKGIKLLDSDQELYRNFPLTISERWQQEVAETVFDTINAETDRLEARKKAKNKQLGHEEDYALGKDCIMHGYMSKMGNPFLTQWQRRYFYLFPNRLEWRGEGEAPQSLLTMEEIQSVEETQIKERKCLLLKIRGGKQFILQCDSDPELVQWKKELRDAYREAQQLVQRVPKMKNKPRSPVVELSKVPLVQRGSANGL
Procedure, shortened: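 GRK2 at 1 nM preincubated 30 min with compound, then reacted 90 min at room temperature with 7 μM ATP and 50 nM ULight-TopoIIα in HEPES/MgCl2/DTT buffer. Phosphorylation detected by TR-FRET after Eu anti-TopoIIα and EDTA addition, 60 min.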

GRK2 [2] = molecular target: T1, GRK2; test: ADPGlo GRK2 Inhibition Assay (Example 8); format: biochemical
Procedure, shortened: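 GRK2 (15 nM 2× enzyme solution) was preincubated 15 min with compound, then reacted 180 min at room temperature with 2× mix of 20 μM ATP plus GRKtide in HEPES pH 7.5, MgCl2, Tween-20, DTT. ADP was detected by ADP-Glo luminescence. Percent inhibition was normalised to enzyme and no-enzyme controls, with dose-response curves from threefold dilutions starting at 100 μM.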

[3] = test system: PAXF1657 control empty vector cell line; test: 7-day proliferation assay, PAXF1657 control empty vector cell line (Example 9); format: cell-based; conditions: 168 h; Cell Line: PAXF1657 empty vector (EV) cell line; 7-day; read-out: C: 7-day proliferation assay: IC50 GeoMean
Procedure, shortened: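 PAXF1657 isogenic lines (GRK2-overexpressing vs empty vector; CRISPR GRK2 knockout vs non-targeting control clones) seeded 500 cells/well in RPMI1640/10% FBS and treated next day with 10-point dilutions, 30 μM-0.0002 μM final, 0.3% DMSO. Media with compound refreshed after 3 days; viability read by CellTiter-Glo luminescence at day 7.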

[4] = Enzyme Assay B, TR-FRET (Example 7), read-out: B: Enzymatic GRK2: IC50 (nM) (Example 7)
[5] = Enzyme Assay A, ADPGlo (Example 8), read-out: A: Enzymatic GRK2: IC50 (nM) (Example 8)
[6] = TR-FRET GRK2 enzyme assay, read-out: B: Enzymatic GRK2: IC50 (nM) (Example 7)
[7] = ADPGlo GRK2 enzyme assay, read-out: A: Enzymatic GRK2: IC50 (nM) (Example 8)

| SMILES | IC50 (GRK2 [1]; [4]) [nM] | IC50 (GRK2 [2]; [5]) [nM] | IC50 [3] [µM] | other results |
| --- | --- | --- | --- | --- |
| Cn1c(CNc2cccc(C(=O)N[C@H]3CCOc4ccccc43)c2)nnc1-c1ccncc1F | 59 | 44.3 | 1.49 | – |
| Cn1c(CNc2cccc(C(=O)N[C@H]3c4ccccc4C[C@H]3O)c2)nnc1-c1ccncn1 | 24 | 7.3 | 1.41 | – |
| Cn1c(CNc2cccc(C(=O)NCc3cnc4ccccn34)c2)nnc1-c1ccncn1 | 3.2 | 0.96 | 1.49 | – |
| Cc1cccc2nnc(CNC(=O)c3cccc(NCc4nnc(-c5ccncn5)n4C)c3)n12 | 2.1 | 0.79 | > 30 | – |
| Cc1cc2c(cc1CNC(=O)c1ccnc(NCc3nnc(-c4ccncn4)n3C)c1)OCCO2 | 11.6 | 22.1 | > 0.33 | – |
| Cn1c(CNc2cc(C(=O)N[C@H]3COc4ccccc43)ccn2)nnc1-c1ccncn1 | 15.3 | 12.9 | 0.476 | – |
| O=C(N[C@H]1CCOc2ccccc21)c1cccc(NCc2nnc(-c3ccncn3)n2CCO)c1 | 2.5 | 4.1 | 0.104 | – |
| Cc1cccc([C@H](CO)NC(=O)c2cccc(NCc3nnc(-c4ccncn4)n3CCO)c2)c1 | < 0.8 | 2.32 | 0.05 | – |
| O=C(N[C@@H]1COc2ccccc21)c1cccc(NCc2nnc(-c3ccncn3)n2CCO)c1 | < 3.6 | 1.95 | 0.09 | – |
| C[C@H](NC(=O)c1cccc(NCc2nnc(-c3ccncn3)n2CCO)c1)c1ncccc1Cl | 0.88 | 4.89 | > 0.22 | – |
| C#Cc1cccc(OS(=O)(=O)F)c1CNC(=O)c1cccc(NCc2nnc(-c3ccncc3)[nH]2)c1 | – | – | 1.55 | IC50 (GRK2 [1]): 4.2 nM; IC50 (GRK2 [2]): 8.94 nM |
| C#COc1cccc(OS(=O)(=O)F)c1CNC(=O)c1cccc(NCc2nnc(-c3ccncc3)[nH]2)c1 | 7.7 | 15.5 | 13.3 | – |
| Cc1ccc2c(c1)[C@@H](NC(=O)c1cccc(NCc3nnc(-c4ccncn4)n3C)c1)CCO2 | 210 | – | > 30 | – |
| Cn1c(CNc2cccc(C(=O)N[C@@H]3CCOc4cc(Br)ccc43)c2)nnc1-c1ccncn1 | 7 | – | > 30 | – |
| Cn1c(CNc2cccc(C(=O)N[C@H]3CCOc4cc(Br)ccc43)c2)nnc1-c1ccncn1 | 11 | – | > 30 | – |
| Cn1c(CNc2cccc(C(=O)N[C@@H]3CCOc4cc(Cl)ccc43)c2)nnc1-c1ccncn1 | 8.4 | – | 0.24 | – |
| Cn1c(CNc2cccc(C(=O)N[C@@H]3CCOc4cccnc43)c2)nnc1-c1ccncn1 | 7 | 1.3 | 0.192 | – |
| Cn1c(CNc2cccc(C(=O)N[C@H]3CCOc4cccnc43)c2)nnc1-c1ccncn1 | 990 | 144 | > 10.1 | – |
| [2H]C([2H])(Nc1cccc(C(=O)NCc2ccncc2CC)c1)c1nnc(-c2ccncn2)n1C | 9.4 | 20.2 | > 30 | – |
| C[C@H](NC(=O)c1cccc(NCc2nnc(-c3ccncn3)n2C)c1)c1ncccc1Cl | – | – | 0.696 | IC50 (GRK2 [1]; [6]): 16 nM; IC50 (GRK2 [2]; [7]): 9.6 nM |

| SMILES | IC50 (GRK2 [1]; [4]) [nM] | IC50 (GRK2 [2]; [5]) [nM] | IC50 [3] [µM] | other results |
| --- | --- | --- | --- | --- |
| Cn1c(CNc2cccc(C(=O)N[C@@H]3CCOc4c(Cl)cccc43)c2)nnc1-c1ccncn1 | – | – | > 0.47 | IC50 (GRK2 [1]; [6]): 3.6 nM; IC50 (GRK2 [2]; [7]): 8.2 nM |
| Cn1c(CNc2cccc(C(=O)N[C@H]3CCOc4c(Cl)cccc43)c2)nnc1-c1ccncn1 | – | – | > 1.01 | IC50 (GRK2 [1]; [6]): 13.2 nM; IC50 (GRK2 [2]; [7]): 33.6 nM |
| CNS(=O)(=O)c1cccc(F)c1CNC(=O)c1cccc(NCc2nnc(-c3ccncn3)n2C)c1 | – | – | 0.732 | IC50 (GRK2 [1]; [6]): 12.7 nM; IC50 (GRK2 [2]; [7]): 7.36 nM |
| Cn1c(CNc2cccc(C(=O)N[C@H](C#N)c3ccc(F)cc3F)c2)nnc1-c1ccncn1 | – | – | 0.122 | IC50 (GRK2 [1]; [6]): 4.9 nM |
| Cn1c(CNc2cccc(C(=O)N[C@H](C#N)c3ccccc3C(F)(F)F)c2)nnc1-c1ccncn1 | – | – | 0.0544 | IC50 (GRK2 [1]; [6]): 3.5 nM |
| Cn1c(CNc2cccc(C(=O)N[C@@H](C#N)c3ccccc3F)c2)nnc1-c1ccncn1 | – | – | 0.0593 | IC50 (GRK2 [1]; [6]): 5.5 nM |
| Cn1c(CNc2cccc(C(=O)N[C@H](C#N)c3ccccc3F)c2)nnc1-c1ccncn1 | – | – | 0.0826 | IC50 (GRK2 [1]; [6]): 6.8 nM |
| [2H]C([2H])(Nc1cccc(C(=O)N[C@H]2CCOc3ccccc32)c1)c1nnc(-c2ccccn2)n1C | – | – | 2.65 | IC50 (GRK2 [1]; [6]): 8.3 nM |
| CCc1cnccc1CNC(=O)c1cccc(NCc2nnc(-c3ccncn3)n2[C@@H]2CCC[C@H](NC)C2)c1 | – | – | > 4.57 | IC50 (GRK2 [1]; [6]): 57 nM; IC50 (GRK2 [2]; [7]): 456 nM |
| CCc1cnccc1CNC(=O)c1cccc(NCc2nnc(-c3ccncn3)n2[C@H]2CCC[C@H](NC)C2)c1 | – | – | – | IC50 (GRK2 [1]; [6]): 810 nM; IC50 (GRK2 [2]; [7]): 529 nM |
| COc1ncccc1CNC(=O)c1cccc(NCc2nnc(-c3ccncc3)[nH]2)c1 [compound 9] | – | – | – | IC50 (GRK2 [1]; 1 nM GRK2, 7 μM ATP, TR-FRET, read-out: GRK2 IC50 (nM) (Example 7)): 5.8 nM; IC50 (GRK2 [2]; 7.5 nM GRK2, 10 μM ATP, ADP-Glo, read-out: GRK2 IC50 (nM) (Example 8)): 12 nM |
| COc1ncccc1CNC(=O)c1cccc(NCc2nnc(-c3ccncc3)[nH]2)c1 [drawing 424] | 5.8 | 12 | > 11 | – |
| COc1cccc(C(CO)NC(=O)c2cccc(NCc3nnc(-c4ccncn4)n3C)c2)c1 (stereo not shown) [drawing 569] | 13 | 5.4 | > 30 | – |
| Cn1c(CNc2cccc(C(=O)NCc3cnccc3Cl)c2)nnc1-c1ccncn1 [drawing 570] | 17 | 4.3 | 1.19 | – |
| Cn1c(CNc2cccc(C(=O)NCc3ccc4c(c3)CCN4)c2)nnc1-c1ccncn1 [drawing 571] | 15 | 9.4 | > 30 | – |
| Cn1c(CNc2cccc(C(=O)NC3CCOc4cccnc43)c2)nnc1-c1ccncn1 (stereo not shown) [drawing 572] | 13 | 9.6 | 0.285 | – |
| Cc1ccc(C(CO)NC(=O)c2cccc(NCc3nnc(-c4ccncn4)n3C)c2)cc1 (stereo not shown) [drawing 575] | 8.1 | 3.3 | > 30 | – |
| CCOc1ccc(C(CO)NC(=O)c2cccc(NCc3nnc(-c4ccncn4)n3C)c2)cn1 (stereo not shown) [drawing 577] | 12 | 1.8 | > 30 | – |
| Cn1c(CNc2cccc(C(=O)NCc3ccc(-n4ccnn4)cc3)c2)nnc1-c1ccncn1 [drawing 579] | 18 | 9.5 | > 30 | – |
